The values below are quoted from earlier work in patent US12246097B2, “Nanoparticle vaccine adjuvant and methods of use thereof” (Massachusetts Institute of Technology, priority 2018, dated 2025).

The data set deals with chick embryo eggs. As to conditions: as measured by lethal dose in chick embryo eggs.

As for 4′-monophosporyl lipid A [MPLA], the “toxicity reduced by a factor (relative to LPS)” value was “more than 1000”.
